# Reference: patent US9205156B2, “Molecular imaging agents” (HADASIT MEDICAL RESEARCH SERVICES & DEVELOPMENT LIMITED, priority 2010, dated 2015)
# “And” between values parts separate entries of the source, which are not always exact repeats. Identical values can stand only once.
# Tests used:
# [1] = literature reference value; cited from earlier work
# [2] = Tracer biodistribution studies in mice (γ-counter, % ID/g)
# Description: Compounds [^11C]-1, [^11C]-2, [^11C]-3, [^11C]-4, [^11C]-6, [^11C]-7 and Technetium-99 m methoxy isobutyl isonitrile ([^99mTc]MIBI) biodistribution studies were carried out with BALB/c Ola/Hsd mice (7-8 week). Tracers were injected in a 10% EtOH/saline solution as vehicle. Either [^11C]-1 (62±15 μCi; […]; 122±13 μL), [^11C]-2 (68±12 μCi; 2.5±0.4 MBq; 188±1.3 μL), [^11C]-3 (70±17 μCi; 2.6±0.6 MBq; 185±5 μL), [^11C]-4 (18±5 μCi; […]; 195±2.2 μL or 1.24±0.93 MBq, 229±63 μL), [^11C]-6 (1.95±0.21 MBq, 83±41 μL), [^11C]-7 (2.01±0.16 MBq, 169±73 μL) or [^99mTc]mibi (14.2±1.7 μCi; 3.6±0.4 MBq; 97.7±12.5 μL) were injected via the lateral vein. At allotted time points (1, 5, 10, 15 min), blood was drawn from the orbital sinus, mice were sacrificed by cervical dislocation and selected organs (heart, lungs, liver and kidney) were excised, weighed and measured for their radioactive content using a γ-counter (1480 Wizard 3″). Distribution of activity was calculated as the percentage of injected dose per gram of organ (% ID/g). Activity uptake ratios of various organs were calculated by dividing the corresponding calculated % ID/gs.
# Distribution of activity was calculated as the percentage of injected dose per gram of wet tissue (% ID/g). Activity uptake ratios of various organs were calculated by dividing the corresponding calculated % ID/g. Heart standardized uptake values (SUVs) were calculated by dividing the % ID in the heart of each rat by the percentage of heart weight of the total body weight of the animal.
# [3] = PET/CT studies in a porcine model of LCx coronary artery occlusion (rest and adenosine stress); assay type: in vivo, pigs
# Description: Following a constriction of the left circumflex coronary artery (LCxA) via insertion and manipulation of a stent, stress and rest dynamic-PET studies were performed in three pigs. Pigs underwent dynamic PET acquisition following injections of [^11C]-4 both at rest and under pharmacological stress [(207±30 MBq in 10±4 mL) and (203±11 MBq in 16±1 mL), respectively]. Images were acquired for each animal at rest and stress on the same day, allowing a minimum of 5 half-lives (approximately 2 h for carbon-11 and 1 h for nitrogen-13) in between injections to minimize crosstalk. Pharmacological stress was induced by an IV infusion of adenosine (500 μg×min^−1×kg^−1 body weight), beginning 3 min prior to injection of the tracers, and maintained for an additional 3 min. When necessary, hypotension was prevented by concomitant IV administration of dobutamine (2 μg×min^−1×kg^−1 body weight).
# In order to prevent complete occlusion in the third pig, the angiography and stent insertion were carried out in the PET/CT room, thus minimizing the animal's movement, and the animal was given higher doses of heparin (a sum of 30,000 units throughout the experiment) based on Activated Clotting Time (ACT) test. In the third pig, the adenosine stress protocol was performed twice: once with [^13N]NH3 (700 MBq in 1 mL) injection, and 2.5 h later, the adenosine stress protocol was repeated with [^11C]-4 injection.
# To prevent blood clotting, pigs were treated with aspirin (250-300 mg) and plavix (150-300 mg) on the day before the procedure. On the day of the study, the animals were anesthetized using ketamine/xylazine (15 mg/kg/2 mg/kg) and Butorphanol 0.2 mg/kg IM as premedication. For induction, ketamin/diazepam (4 mg/kg/0.02 mg/kg) was administered intravenously. Animals were ventilated and anesthesia, maintained using isoflorane 2% inhalation (via tracheal tube). Animals were monitored continuously for ECG, body temperature, O2 saturation, blood pressure, pulse and breathing. Vascular access was prepared in the left and right ear veins for drug and tracer administration, and a catheter was placed in the left femoral artery for stent insertion and arterial blood pressure measurements.
# Following anesthesia, the pigs underwent cannulation of the left femoral artery with a 7 Fr introducer sheath and a 7 Fr hockeystick catheter (Cordis) was positioned in the left main coronary artery. Partial LCx coronary artery occlusion was induced via partial inflation of the proximal component of a JOSTENT Graftmaster (Abbott Vascular, USA) inside the LCx coronary artery, creating a funnel-shaped structure. Before insertion of the stent, the 3.5×16 mm JOSTENT was partially crimped over a 3.5 mm balloon with its distal third beyond the inflating balloon. Inflation of the balloon dilates the crimped part leaving a distal cone that is not dilated with an orifice approximately 1 mm in diameter. Thus, when deployed in an artery that is 3.5 mm in diameter, a partial, yet significant stenosis was established.
# Coronary angiography was performed with 20-30 mL of contrast media and 3.5 mm wide and >20 mm long segment of the LCx artery that was free of major branches. The stent system was brought to the assigned segment over a floppy 0.014 coronary wire (ASAHI). The balloon was inflated with a pressure of 14-16 atmospheres (10-15 seconds) and the balloon was then deflated and withdrawn. Angiography was then performed in two different projections to ascertain that the cone-shaped stent enabled preserved continuous flow through its patent distal orifice. To ensure partial stenosis rather than complete occlusion of the artery during the PET imaging, a repeated angiography was taken at the end of imaging.
# Animals were placed in a supine position with the heart in the center of the field of view of the PET/CT scanner. Imaging was performed on a Discovery ST PET/CT tomograph (GE Healthcare, Milwaukee, Wis.), with intrinsic spatial resolution: in-plane 6.2 mm, axial 5.0 mm. […]
# [4] = Biodistribution of [11C]-4 in rats (γ-counter, % ID/g, heart SUV); assay type: in vivo, SD/Hsd rats
# Description: Similar to the biodistribution studies in mice, [^11C]-4 was injected into male SD/Hsd rats (293±9 g) in a 10% EtOH/saline solution (3.1±0.5 MBq; 530±134 μL) via the lateral tail vein. At the allotted time points, blood was drawn, animals were sacrificed, and selected organs were excised, weighed and measured for their radioactive content.
# [5] = Micro-PET scans in rats, time activity curves; assay type: in vivo, Wistar rats; conditions: microPET; for myocardial radioactivity uptake: isoflurane anesthesia
# Description: Micro-PET scans were also carried out using healthy Wistar rats (154±47 g). Anesthesia was induced, and thereafter maintained by 3% and 1%-2.5% isoflurane in O2, respectively. During the scans, rats were maintained normothermic using a heating blanket. All CT and PET acquisitions were carried out using the Inveon™ multimodality PET-CT small animal-dedicated scanner (Siemens Medical Solutions USA Inc.). Rats were positioned in the scanner so that the heart was in the center of the field of view. Following a CT scan, PET list-mode acquisition was started at the time of injection of [^11C]-4 (14.3±5.7 Mbq/rat, n=4) or [^13N]—NH3 (81.1±20.4 Mbq/rat, n=6) in the lateral tail vein. Acquisitions continued for 60 min or 40 min post-injection, for [^11C]-4 or [^13N]—NH3, respectively.
# The list-mode emission scans were sorted into 29 (6×10, 8×30, 5×60, 10×300 sec) and 24 (12×10, 6×30, 5×300, 1×600 sec) dynamic frames, for [^11C]-4 and [^13N]—NH3 respectively. Emission sinograms were normalized and corrected for attenuation, dead time and decay. Image reconstruction was performed using Fourier rebinning and two dimensional ordered-subsets expectation maximization (2D-OSEM), with a voxel size of 0.776×0.776×0.796 mm^3.
# Image analysis and quantification of radioactivity concentration in regions of interest (ROIs) were performed using Inveon Research Workplace 3.1 (Siemens Medical Solutions USA Inc.). Delineation of ROIs was performed by manual segmentation, and the corresponding time activity curves (TACs) were calculated.
# log P (lipophilicity) = assay type: physicochemical; conditions: n=3, data not shown
# [6] = mice, time point not stated (within 15 min period)
# [7] = BALB/c Ola/Hsd, mouse, in vivo, 1 min
# [8] = BALB/c Ola/Hsd, mouse, in vivo, 5 min
# [9] = BALB/c Ola/Hsd, mouse, in vivo, 10 min
# [10] = BALB/c Ola/Hsd, mouse, in vivo, 15 min
molecule,measurement,setting,value
[^11C]tetramethyl-ammonium iodide [[^11C]-1],log P,[1],−3.92
same,"cardiac uptake, folds lower than in the kidneys",[2]; mice,9 folds
same,"cardiac uptake, folds lower than in the liver",[2]; mice,3 folds
same,activity accumulation in the heart over all observed time points,"[2]; mice, 1-15 min post injection",0.7-1.1 % ID/g
same,heart/blood activity uptake ratio,[2]; [6],less than 6 fold
"C[N+](C)([11CH3])c1ccccc1 [[^11C]-2, [^11C]trimethyl-phenyl-ammonium iodide]",log P,[1],−2.74
same,radioactivity uptake in the heart,"[2]; mice, 1 min post injection",29.5 % ID/g
same,heart/blood activity uptake ratio,"[2]; mice, 5 min post injection",15.5 fold
same,heart/liver activity uptake ratio,"[2]; mice, 5 min post injection",1.9
same,heart/lungs activity uptake ratio,"[2]; mice, 5 min post injection",2.6
same,radioactivity uptake in the heart,"[2]; mice, 5 min post injection",26.8 % ID/g
same,heart/blood activity uptake ratio,"[2]; mice, 10 min post injection",13.3 fold and ~13 fold
same,radioactivity uptake in the heart,"[2]; mice, 10 min post injection",18.5 % ID/g and ~20 % ID/g
same,radioactivity uptake in the heart,"[2]; mice, 15 min post injection",13.9 % ID/g
same,heart/blood activity uptake ratio,[2]; [6],16 fold
"[99Tc].[C-]#[N+]CC(C)(C)OC.[C-]#[N+]CC(C)(C)OC.[C-]#[N+]CC(C)(C)OC.[C-]#[N+]CC(C)(C)OC.[C-]#[N+]CC(C)(C)OC.[C-]#[N+]CC(C)(C)OC [[^99mTc]MIBI, Technetium-99 m methoxy isobutyl isonitrile, reference compound]",radioactivity uptake in the heart,"[2]; mice, 1 min post injection",24 % ID/g
same,radioactivity uptake in the heart,"[2]; mice, 5 min post injection",20.5 % ID/g
same,radioactivity uptake in the heart,"[2]; mice, 10 min post injection",21.4 % ID/g
same,heart/blood activity uptake ratio,"[2]; mice, 15 min post injection",45.1 fold
same,radioactivity uptake in the heart,"[2]; mice, 15 min post injection",13.8 % ID/g
"Cc1cccc([N+](C)(C)[11CH3])c1 [[^11C]-6, [^11C]Methyl-dimethyl-m-tolyl-ammonium iodide]",heart/blood activity uptake ratio,"[2]; mice, 10 min post injection",~13 fold
same,radioactivity uptake in the heart,"[2]; mice, 10 min post injection",~20 % ID/g
"C[N+](C)([11CH3])c1cccc2ccccc12.O=S(=O)([O-])C(F)(F)F [[^11C]-7, [^11C]Methyl-dimethyl-1-naphtylammonium trifluoro-methane-sulfonate]",radioactivity uptake in the heart,"[2]; mice, 10 min post injection",~33 % ID/g
same,heart/blood activity uptake ratio,[2]; [6],≤ 20 fold
"C[N+]([11CH3])(c1ccccc1)c1ccccc1 [[^11C]-4, [^11C]dimethyl-diphenyl-ammonium iodide]",radioactivity uptake in the heart,[2]; [7],46.6 % ID/g
same,heart/blood activity uptake ratio,[2]; [8],44 fold
same,radioactivity uptake in the heart,[2]; [8],50.4 % ID/g
same,heart/blood activity uptake ratio,[2]; [9],61 fold
same,radioactivity uptake in the heart,[2]; [9],62.5 % ID/g
same,Heart SUV,[2]; [10],9.7±0.5
same,radioactivity uptake in the heart,[2]; [10],44.5 % ID/g
same,heart uptake compared to [99mTc]-MIBI,"[2]; mouse, in vivo",twice as high
same,"myocardial perfusion image finding, rest and stress","[3]; pig 1, complete stent occlusion","very severe, non-filling defect"
same,"myocardial perfusion image finding, rest and stress","[3]; pig 2, acute myocardial infarction","severe, fixed, inferior wall defect, with partial inferolateral wall reversibility"
same,myocardial perfusion image finding at adenosine stress,"[3]; pig 3, partial LCx stenosis",severe inferolateral defect
same,myocardial perfusion image finding at rest,"[3]; pig 3, partial LCx stenosis",filling in of that defect
same,time to minimum of blood pool activity,"[3]; pig 3, time-activity curves",5 min
same,time to plateau of cardiac accumulation,"[3]; pig 3, time-activity curves",approximately 10 min
same,stable heart SUVs,[4],about 15
same,heart/blood activity ratios,[4]; 5-15 min after injection,67.5-88.5
same,heart/kidneys uptake ratio,[4]; 10 min after injection,3.5
same,heart/liver uptake ratio,[4]; 10 min after injection,3.2
same,heart/lungs uptake ratio,[4]; 10 min after injection,2.4
same,Heart SUV,[4]; 15 min post injection,15.6±0.4
same,heart/blood activity ratio,[4]; 15 min post injection,about 90
same,"radioactivity in the heart compared to the lungs, kidneys and the liver",[4]; 15 min post injection,approximately 5 fold
same,radioactivity uptake in the heart,[4]; throughout the first 15 min,approximately 5 % ID/g
same,"kidney radioactivity uptake, initial peak value",[5],6 % ID/mL
same,kidney radioactivity uptake,[5]; 20 min after injection,~1 % ID/mL
same,myocardial radioactivity uptake,[5],~3 % ID/mL
"[13NH3] [[^13N]NH3, [^13N]ammonia, reference compound]",myocardial perfusion image finding at adenosine stress,"[3]; pig 3, partial LCx stenosis",severe inferolateral defect
same,"kidney radioactivity uptake, initial peak value",[5],3 % ID/mL
same,myocardial radioactivity uptake,[5],≤ 1.7 % ID/mL
"CN(C)c1ccc([N+](C)(C)[11CH3])cc1 [[^11C]-3, [^11C](4-dimethylamino-phenyl)-trimethyl-ammonium iodide]",radioactivity uptake in the heart,[2]; [7],48.7 % ID/g
same,radioactivity uptake in the heart,[2]; [8],47.7 % ID/g
same,radioactivity uptake in the heart,[2]; [9],40.15 % ID/g
same,radioactivity uptake in the heart,[2]; [10],28.5 % ID/g
same,logP,log P (lipophilicity),-0.93 ± 0.1
